Assay [1] concerns M21. Briefly: Cell cycle arrest in human M21 cells assessed as accumulation at S phase at 48 uM after 24 hrs by DAPI staining-based flow cytometry (reference value: 17.4%). The format is functional.
Assay [2] concerns M21. The assay is described as follows: Cell cycle arrest in human M21 cells assessed as accumulation at subG1 phase at 48 uM after 24 hrs by DAPI staining-based flow cytometry (reference value: 1.5%). It is filed as functional. A general note: In flow cytometry, cells or beads pass a laser one at a time.
Assay [3] can be described thus: Antiproliferative activity against human HT1080 cells assessed as growth inhibition incubated for 48 hrs by sulforhodamine B assay. It is filed as functional, cell-based, HT-1080. The note with it: Homo sapiens, HT-1080, 48 h; read-out: IC50.
The test system of assay [4] is M21. Briefly: Antiproliferative activity against human M21 cells assessed as growth inhibition incubated for 48 hrs by sulforhodamine B assay. The conditions noted are these: M21, 48 h. The format is functional, cell-based. A general note: Sulforhodamine B stains cellular protein and so reports cell mass.
The test system of a further assay is MCF7. The assay is described as follows: Antiproliferative activity against human MCF7 cells assessed as growth inhibition incubated for 48 hrs by sulforhodamine B assay. The format is functional, cell-based. The conditions noted are these: MCF7, 48 h.
Assay [5] deals with M21. The assay is described as follows: Cell cycle arrest in human M21 cells assessed as accumulation at G2/M phase at 48 uM after 24 hrs by DAPI staining-based flow cytometry (reference value: 16%). The format is functional.
A further assay deals with HT-29. Briefly: Antiproliferative activity against human HT-29 cells assessed as growth inhibition incubated for 48 hrs by sulforhodamine B assay. It is filed as functional, cell-based. The note with it: HT-29, 48 h.
Assay [6] relates to M21. The assay is described as follows: Cell cycle arrest in human M21 cells assessed as accumulation at G0/G1 phase at 48 uM after 24 hrs by DAPI staining-based flow cytometry (reference value: 65.1%). It is filed as functional.
In assay [7] the test system is M21. The assay is described as follows: Cell cycle arrest in human M21 cells assessed as accumulation at G0/G1 phase at 42 uM after 24 hrs by DAPI staining-based flow cytometry (reference value: 65.1%). The format is functional.
In assay [8] the test system is M21. Briefly: Cell cycle arrest in human M21 cells assessed as accumulation at G2/M phase at 42 uM after 24 hrs by DAPI staining-based flow cytometry (reference value: 16%). It is filed as functional.
Assay [9] relates to M21. Briefly: Cell cycle arrest in human M21 cells assessed as accumulation at subG1 phase at 42 uM after 24 hrs by DAPI staining-based flow cytometry (reference value: 1.5%). The format is functional.
Assay [10] concerns M21. Briefly: Cell cycle arrest in human M21 cells assessed as accumulation at S phase at 42 uM after 24 hrs by DAPI staining-based flow cytometry (reference value: 17.4%). It is filed as functional.
Assay [11] has as its system M21. Briefly: Cell cycle arrest in human M21 cells assessed as accumulation at G2/M phase at 6.5 uM after 24 hrs by DAPI staining-based flow cytometry (reference value: 16%). The format is functional.
The test system of assay [12] is M21. The assay is described as follows: Cell cycle arrest in human M21 cells assessed as accumulation at G0/G1 phase at 6.5 uM after 24 hrs by DAPI staining-based flow cytometry (reference value: 65.1%). The format is functional.
Assay [13] has as its system M21. Briefly: Cell cycle arrest in human M21 cells assessed as accumulation at subG1 phase at 6.5 uM after 24 hrs by DAPI staining-based flow cytometry (reference value: 1.5%). It is filed as functional.
In assay [14] the test system is M21. Briefly: Cell cycle arrest in human M21 cells assessed as accumulation at S phase at 6.5 uM after 24 hrs by DAPI staining-based flow cytometry (reference value: 17.4%). The format is functional.
For assay [15], the system named is M21. Briefly: Cell cycle arrest in human M21 cells assessed as accumulation at subG1 phase at 16 uM after 24 hrs by DAPI staining-based flow cytometry (reference value: 1.5%). It is filed as functional.
Assay [16] deals with M21. The assay is described as follows: Cell cycle arrest in human M21 cells assessed as accumulation at S phase at 16 uM after 24 hrs by DAPI staining-based flow cytometry (reference value: 17.4%). The format is functional.
Assay [17] concerns M21. Briefly: Cell cycle arrest in human M21 cells assessed as accumulation at G2/M phase at 16 uM after 24 hrs by DAPI staining-based flow cytometry (reference value: 16%). It is filed as functional.
For assay [18], the system named is M21. Briefly: Cell cycle arrest in human M21 cells assessed as accumulation at G0/G1 phase at 16 uM after 24 hrs by DAPI staining-based flow cytometry (reference value: 65.1%). It is filed as functional.
In assay [19] the test system is M21. The assay is described as follows: Cell cycle arrest in human M21 cells assessed as accumulation at G0/G1 phase at 2.2 uM after 24 hrs by DAPI staining-based flow cytometry (reference value: 65.1%). The format is functional.
Assay [20] concerns M21. Briefly: Cell cycle arrest in human M21 cells assessed as accumulation at S phase at 2.2 uM after 24 hrs by DAPI staining-based flow cytometry (reference value: 17.4%). The format is functional.
For assay [21], the system named is M21. The assay is described as follows: Cell cycle arrest in human M21 cells assessed as accumulation at subG1 phase at 2.2 uM after 24 hrs by DAPI staining-based flow cytometry (reference value: 1.5%). The format is functional.
For assay [22], the system named is M21. Briefly: Cell cycle arrest in human M21 cells assessed as accumulation at G2/M phase at 2.2 uM after 24 hrs by DAPI staining-based flow cytometry (reference value: 16%). The format is functional.
Assay [23] has as its system M21. The assay is described as follows: Cell cycle arrest in human M21 cells assessed as accumulation at G2/M phase at 7.5 uM after 24 hrs by DAPI staining-based flow cytometry (reference value: 16%). The format is functional.
Assay [24] concerns M21. Briefly: Cell cycle arrest in human M21 cells assessed as accumulation at subG1 phase at 7.5 uM after 24 hrs by DAPI staining-based flow cytometry (reference value: 1.5%). It is filed as functional.
Assay [25] concerns M21. The assay is described as follows: Cell cycle arrest in human M21 cells assessed as accumulation at G0/G1 phase at 7.5 uM after 24 hrs by DAPI staining-based flow cytometry (reference value: 65.1%). The format is functional.
In assay [26] the test system is M21. The assay is described as follows: Cell cycle arrest in human M21 cells assessed as accumulation at S phase at 7.5 uM after 24 hrs by DAPI staining-based flow cytometry (reference value: 17.4%). It is filed as functional.

Usually IC50 stands for the point on the concentration scale where inhibition reaches its midpoint. Turning to `O=C(NCCCl)Nc1ccc(S(=O)(=O)Oc2ccc(F)cc2F)cc1`, the Activity in the assay with M21 [1] is 10%; with M21 [2], 5.2%; in the assay on M21 [5], 71.4%; in the assay on M21 [6], 13.4%. For the same molecule, the half-inhibitory concentration (IC50) in assay [3] was 9400 nM; with M21 [4] it was 9600 nM; in the assay on MCF7, 9300 nM; with HT-29, 9600 nM.
With `O=C(NCCCl)Nc1ccc(S(=O)(=O)Oc2ccc(F)c(F)c2)cc1`, the Activity with M21 [7] is listed as 11.6%; in the assay on M21 [8], 62.5%; in the assay on M21 [9] it was 7.6%; in the assay on M21 [10], 18.3%. In addition, the IC50 was determined as 8100 nM in assay [3], 7300 nM in the assay with M21 [4], 8900 nM with MCF7 and 7000 nM in the assay with HT-29.
In the case of `O=C(NCCCl)Nc1ccc(S(=O)(=O)Oc2c(Cl)cc(Cl)cc2Cl)cc1`, the IC50 in assay [3] was 1500 nM; in the assay on M21 [4] it was 1300 nM; with MCF7, 1700 nM; with HT-29 it was 1500 nM. Also, the Activity in the assay with M21 [11] stood at 72.6%; in the assay with M21 [12], 11.6%; in the assay with M21 [13] it was 8.5%; in the assay with M21 [14], 7.3%.
For `O=C(NCCCl)Nc1ccc(S(=O)(=O)Oc2c(F)cccc2F)cc1`, the Activity in the assay with M21 [15] is 8.7%; in the assay on M21 [16], 15.1%; in the assay on M21 [17], 46.8%; in the assay on M21 [18], 29.4%. Further, the IC50 in assay [3] amounted to 3200 nM; with M21 [4] it was 3200 nM; in the assay with MCF7 it was 4800 nM; in the assay with HT-29 it was 4100 nM.
On to `CCOc1ccccc1OS(=O)(=O)c1ccc(NC(=O)NCCCl)cc1`, for which the IC50 is 2200 nM in assay [3], 1100 nM with M21 [4], 1700 nM with MCF7 and 1400 nM with HT-29. In addition, the Activity was 28.8% in the assay with M21 [19], 11.8% with M21 [20], 6.7% with M21 [21] and 52.7% with M21 [22].
For the molecule `COc1cc(OC)cc(OS(=O)(=O)c2ccc(NC(=O)NCCCl)cc2)c1`, the Activity in the assay with M21 [23] was determined as 74.1%; in the assay with M21 [24], 11.4%; in the assay with M21 [25], 9.3%; in the assay on M21 [26] it was 5.2%. In addition, the IC50 in assay [3] turned out to be 1500 nM; with M21 [4], 1100 nM; in the assay with MCF7, 2000 nM; with HT-29, 1100 nM.

The values above are taken from ChEMBL document CHEMBL3632622, “Synthesis and biological evaluation of novel N-phenyl ureidobenzenesulfonate derivatives as potential anticancer agents. Part 2. Modulation of the ring B” (Eur J Med Chem, 2015).
